pEC50, pIC50: −log10 of the molar value. Where two headings read alike, the source gives them in different places.
Key:
[1] = tested on: fatty acid CoA activation in Dictyostelium cell extracts; assay: Fatty acid activation (palmitic acid to PaA-CoA) in cell extracts; assay type: biochemical, Dictyostelium discoideum; details: VPA 1.0 mM with cell extracts or 10 min, 1 mM pre-treatment of cells
Description: Screening of a REMI library was carried out as previously described (Kuspa & Loomis, 2006) using A×2 background, with VPA resistant mutants selected for the ability to develop in the presence of 1 mM VPA on R. planticola. Identification of the ablated gene, enabled the identified PLAa (DDB_G0278525; SEQ ID NO: 16) to be recapitulated using by homologous recombination of a knockout cassette. Primers used for amplifying region within the open reading frame of the gene were (5′ […] (SEQ ID NO: 17) and 3′ […] (SEQ ID NO: 18), cloned by pCR2.1 TOPO (Invitrogen Ltd)), cloned into pUC19 using EcoRI digestion, and Sinai digested fragment from pBLPblp (Falx et al, 2004) was inserted into the EcoRV site of the insert. Genetic ablation was confirmed by PCR analysis. Developmental resistance to VPA was assessed by plating cells (1×10^6) on 47 mm nitrocellulose filters (Millipore) soaked in phosphate buffer containing either 1 mM VPA or control, and development was recorded after 30 h unless otherwise stated. Development images were observed using a Leica CLS 150× microscope and images recorded using QICAM FAST 1394 camera. Fatty acid activation was determined by the method established by Wilson et al. (Wilson et al, 1982) with slight modifications. […]

[2] = tested on: PTZ-induced epileptiform activity in entorhinal cortex-hippocampal slices; assay: In vitro PTZ acute seizure model, entorhinal cortex-hippocampus slices; assay type: cell-based, rat; details: PTZ 2 mM, [K+] 6 mM; compounds equimolar 1 mM; 30 to 40 minutes after application
Description: The rats (p21) were decapitated after killing by intraperitoneal injection with an overdose of pentobarbitone (500 mg/kg). The brain was removed and placed in ice-cold sucrose solution in mM: NaCl 87, KCl 2.5, MgCl2 7, CaCl2 0.5, NaH2PO4 1.25, sucrose 75, glucose 25, equilibrated with 95% 02/5% CO2 (pH 7.4). Horizontal combined entorhinal cortex-hippocampus slices (350 μm) were prepared with a Leica vibratome (Leica V T1200S) and were then stored in an interface chamber that contained artificial cerebrospinal fluid solution (aCSF) containing in mM: NaCl 119, KCl 2.5, MgSO4 4, CaCl2 4, NaHCO326.2, NaH2PO4 1, glucose 11, and gassed with 95% O2/5% CO2. They were stored for over one hour before being transferred to a submersion recording chamber continually perfused with carbogenated aCSF for recording. Field potential recordings were made by placing glass microelectrodes (˜1-2 MΩ) filled with aCSF solution in stratum radiatum of CA1. Bipolar stimulating electrodes were positioned in the Schaffer collateral/commissural fibre pathway in stratum radiatum to confirm slice viability. In the PTZ acute seizure model, PTZ (2 mM) was added to the perfusate and [K+] was increased to 6 mM in order to induce epileptiform activity (Armand et al., 1998). In the low Mg^2+ acute seizure model, Mg^2+ free aCSF was applied to generate rhythmic short recurrent discharges. Novel anticonvulsants were applied once the frequency and amplitude of the epileptiform discharges were stable over a period of 10 min. Anticonvulsant effects were evaluated by measuring the variation of frequency of the discharges every minute. The data acquired from the 30 to 40 minutes after application novel anticonvulsants were compared by ANOVA followed by post-hoc testing using Tukey test, using SPSS statistical analysis.

[3] = tested on: release of 3H arachidonic acid / palmitic acid radiolabel from Dictyostelium cells; assay: Fatty acid release (3H radiolabel release from labelled cells); assay type: cell-based, Dictyostelium discoideum
[4] = tested on: phosphoinositide (PIP and PIP2) turnover in Dictyostelium AX2 cells; assay: Dictyostelium phospholipid labelling (PIP and PIP2 turnover); assay type: cell-based, Dictyostelium discoideum; details: for activity at 500 µM: 0.1 h
Description: Phospholipid labelling was quantified using a Typhoon phosphor-imager. Even loading was determined using total lipid stain with copper sulphate.

[5] = tested on: inositol trisphosphate (InsP3) levels in Dictyostelium; details: Williams et al., 1999; cited from earlier work
[6] = 0.5 mM VPA, 6 min treatment (printed 6 mM)
[7] = 5×PI3K knockout mutant, 0.5 mM VPA, 9 min
[8] = PIPKinA knockout mutant, 0.5 mM VPA, 9 min
[9] = cells lacking phospholipase C gene, 0.5 mM VPA, 9 min
[10] = prolyl oligopeptidase (PO) ablated cells, 0.5 mM VPA, 9 min
[11] = rPKA knockout mutant, 0.5 mM VPA, 9 min

CCCC(CCC)C(=O)O [VPA, 2-propylpentanoic acid, reference compound]
effect on fatty acid activation (PaA-CoA) [1]: no effect
frequency of epileptiform discharges (seizure discharge frequency) [2]: 75.1±1.7%
activity at 500 µM ([3]; Dictyostelium, 0.5 h, Table 3, 3H-AA labelled cells, 30 min, 0.5 mM treatment, read-out: AA release [% of control]): 50%
pIC50 ([3]; Dictyostelium, 3H arachidonic acid labelled cells, read-out: IC50 of decrease in radiolabel release): 4.05
pIC50 ([3]; Dictyostelium, 3H palmitic acid labelled cells, read-out: IC50 of inhibition of tritiated palmitic acid release): 3.79
radiolabel release activity relative to control ([3]; Table 3, 30 min, 0.5 mM): 50 % of control
reduction in radio-labelled PIP2 turnover [4, 6]: 49%
reduction in radio-labelled PIP turnover [4, 6]: 49%
reduction of PIP2 turnover ([4]; 0.5 mM VPA, 9 min treatment): 79%
reduction of PIP turnover ([4]; 0.5 mM VPA, 9 min treatment): 68%
reduction in PIP2 turnover ([4]; 0.5 mM VPA, 60 min treatment): 94%
reduction in PIP turnover ([4]; 0.5 mM VPA, 60 min treatment): 94%
reduction of PIP2 production compared to untreated cells [4, 7]: 70%
reduction of PIP production compared to untreated cells [4, 7]: 48%
activity at 500 µM ([4]; Dictyostelium, read-out: PIP Level (% control), Table 1, 0.5 mM compound, 3 min pre-treatment + 6 min labelling, wild type Dictyostelium): 32%
activity at 500 µM ([4]; Dictyostelium, read-out: PIP level % control, Table 2, VPA and straight chain acids in Dictyostelium): 32%
pEC50 ([4]; Dictyostelium, 0.15 h, read-out: EC50 of inhibition of phosphoinositide turnover): 3.81
inhibition at 250 µM ([4]; Dictyostelium, 0.15 h, read-out: inhibition of PIP2 turnover): 42%
inhibition at 250 µM ([4]; Dictyostelium, 0.15 h, read-out: inhibition of PIP turnover): 25%
reduction in PIP2 synthesis compared to untreated cells [4, 8]: 68%
reduction in PIP synthesis compared to untreated cells [4, 8]: 54%
reduction in PIP2 signalling [4, 9]: 75%
reduction in PIP signalling [4, 9]: 73%
reduction in PIP2 signalling [4, 10]: 68%
reduction in PIP signalling [4, 10]: 66%
additional reduction of PIP2 production compared to untreated cells [4, 11]: 33%
additional reduction of PIP production compared to untreated cells [4, 11]: 72%
treatment time required for depletion of inositol trisphosphate [5]: 6 h

Source: US11491127B2, “Therapeutic use of compounds” (UCL BUSINESS LTD, priority 2010, dated 2022)
